The record followed here is US6410792B1, “Amide derivatives and methods for using the same as selective neuropeptide Y receptor antagonists” (Bayer Corporation, priority 1997, dated 2002).

The target of data set [1] is T1, Human NPY5 receptor (Homo sapiens, UniProt Q15761).
T1 sequence (Q15761 1-445): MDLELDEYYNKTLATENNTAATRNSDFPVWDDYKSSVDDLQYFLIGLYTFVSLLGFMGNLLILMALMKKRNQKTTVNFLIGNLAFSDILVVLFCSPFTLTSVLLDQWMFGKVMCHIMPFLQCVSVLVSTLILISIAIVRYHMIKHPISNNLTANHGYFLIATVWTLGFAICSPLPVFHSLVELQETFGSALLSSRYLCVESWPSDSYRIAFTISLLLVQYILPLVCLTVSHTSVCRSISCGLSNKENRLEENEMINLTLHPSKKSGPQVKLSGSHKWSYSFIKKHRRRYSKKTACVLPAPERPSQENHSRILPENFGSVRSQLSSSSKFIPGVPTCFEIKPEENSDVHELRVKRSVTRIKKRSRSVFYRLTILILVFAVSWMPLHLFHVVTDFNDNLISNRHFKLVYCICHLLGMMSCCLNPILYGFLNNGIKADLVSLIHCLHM
Kind of data set: Human NPY5 receptor binding assay ([125I]PYY, membrane protein). In short, it runs like this: (§1)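 Membrane protein was incubated with 75-100 pM porcine [125I]PYY and test compound for 2 hours at room temperature with constant mixing in pH 7.4 Tris buffer containing NaCl, KCl, CaCl2, MgSO4, 0.1% BSA and bacitracin. Nonspecific binding was defined with 1 μM PYY. Bound radioactivity was counted after filtration.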

The target of data set [2] is T2, Rat NPY5 receptor (Rattus norvegicus, UniProt Q63634).
T2 sequence (Q63634 1-445): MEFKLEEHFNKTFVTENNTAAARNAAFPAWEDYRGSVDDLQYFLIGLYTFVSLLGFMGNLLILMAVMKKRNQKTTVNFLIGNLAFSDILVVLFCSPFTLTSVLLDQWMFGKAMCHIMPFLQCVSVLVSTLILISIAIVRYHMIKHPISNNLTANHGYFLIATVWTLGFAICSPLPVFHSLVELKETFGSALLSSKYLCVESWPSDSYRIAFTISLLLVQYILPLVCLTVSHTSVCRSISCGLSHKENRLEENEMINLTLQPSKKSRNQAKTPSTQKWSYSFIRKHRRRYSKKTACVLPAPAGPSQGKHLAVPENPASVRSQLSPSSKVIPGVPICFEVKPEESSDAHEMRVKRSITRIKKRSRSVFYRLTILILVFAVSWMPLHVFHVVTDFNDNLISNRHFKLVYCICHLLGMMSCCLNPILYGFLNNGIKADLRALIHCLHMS
As to the kind of experiment: Rat NPY5 receptor binding assay ([125I]PYY, membrane protein). In short, it runs like this:
as §1

In data set [3] the target is T2, Rat NPY5 receptor. Kind of data set: Rat NPY5 cyclase assay (in vitro functional assay, forskolin-stimulated adenylate cyclase, cAMP). The data set is classed as cell-based. The conditions noted are these: 10 μM, percentage of forskolin-stimulated adenylate cyclase; for activity at 10 µM: 20 min, read-out: rNPY5 % FSAC (10 μM). The procedure:
D. Rat NYP5 Cyclase Assay (In Vitro Functional Assay)
Cells stably expressing the rat NPY5 receptor are resuspended in serum-free DMEM containing 10 mM HEPES (pH 7.4) and 1 mM isobutylmethylxanthine (IBMX). […] forskolin and drug dilution are then added to the cells. After a 20 minute incubation of the samples at 37° C, the assay is stopped by placing the samples in boiling water for 3 minutes. The cAMP produced in each sample is quantitated with a radioimmunoassay kit (NEN DuPont). Data are expressed as a percentage of forskolin-stimulated adenylate cyclase.

Data set [4] concerns the target T3, Y2 receptor (Homo sapiens, UniProt P49146).
T3 sequence (P49146 1-381): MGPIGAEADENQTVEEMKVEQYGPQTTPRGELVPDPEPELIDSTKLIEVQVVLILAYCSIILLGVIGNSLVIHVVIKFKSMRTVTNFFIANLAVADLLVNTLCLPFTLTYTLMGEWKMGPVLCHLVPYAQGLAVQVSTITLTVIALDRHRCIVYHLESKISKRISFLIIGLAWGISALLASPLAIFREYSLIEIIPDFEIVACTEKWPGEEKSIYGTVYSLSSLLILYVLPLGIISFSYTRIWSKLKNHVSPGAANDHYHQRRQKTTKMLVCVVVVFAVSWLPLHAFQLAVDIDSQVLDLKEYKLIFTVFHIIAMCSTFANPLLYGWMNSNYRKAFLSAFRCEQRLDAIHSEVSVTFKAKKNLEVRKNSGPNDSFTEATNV
Kind of data set: Y2 receptor binding assay ([125I]PYY, membrane protein). The conditions noted are these: [125I]PYY, membrane protein; read-out: hNPY2 IC50. In short, it runs like this: (§2)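 Filtration binding with membrane protein and drug dilution, 2 h at room temperature with mixing, radioactivity counted by gamma or scintillation. Y2: 25 pM [125I]PYY in Krebs-Ringer bicarbonate pH 7.4 with 0.01% BSA, nonspecific by 1 μM NPY. Y4/PP1: 50 pM [125I]hPP in HEPES-buffered saline pH 7.4 with protease inhibitors and 0.3% BSA, nonspecific by 1 μM hPP.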

In data set [5] the target is human Y4/PP1 receptor (Homo sapiens, UniProt P50391). As to the kind of experiment: Human Y4/PP1 receptor binding assay ([125I]human PP, membrane protein). Conditions: [125I]human PP, membrane protein; read-out: hNPY4 IC50. In a few lines:
as §2

The target in data set [6] is T4, Human NPY1 receptor (Homo sapiens, UniProt P25929).
T4 construct: host or cells: SK-N-MC cells
T4 sequence (P25929 1-384): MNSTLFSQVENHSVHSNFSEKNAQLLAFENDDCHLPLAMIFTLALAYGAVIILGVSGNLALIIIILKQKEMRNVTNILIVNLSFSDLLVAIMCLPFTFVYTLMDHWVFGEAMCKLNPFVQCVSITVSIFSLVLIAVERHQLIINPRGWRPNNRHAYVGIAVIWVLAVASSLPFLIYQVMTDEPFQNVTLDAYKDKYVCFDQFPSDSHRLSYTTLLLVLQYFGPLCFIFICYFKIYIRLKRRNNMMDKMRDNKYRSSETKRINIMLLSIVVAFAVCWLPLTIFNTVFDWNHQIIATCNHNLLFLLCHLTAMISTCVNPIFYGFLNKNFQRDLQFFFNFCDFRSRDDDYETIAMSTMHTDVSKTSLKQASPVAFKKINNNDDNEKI
Kind of data set: Human NPY1 receptor binding assay ([125I]PYY, SK-N-MC cells). Conditions: [125I]PYY, SK-N-MC cells; read-out: hNPYI IC50. In short, it runs like this:
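Confluent SK-N-MC cells preincubated 30 min at room temperature in serum-free DMEM/25 mM HEPES pH 7.3 with BSA, bacitracin and PMSF, then incubated 3 h at room temperature with compound and ~50 pM [125I]PYY. Nonspecific binding defined with 1 μM NPY; bound radioactivity counted after Triton X-100 lysis.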

The mark [7] stands for this setting: [125I]PYY, read-out: hNPY5 IC50.
Where [8] appears, read: [125I]PYY, read-out: rNPY5 IC50.

Where a name gives a salt, the structure may show the parent alone. Read-outs that look alike come from different tables or passages of the source. Where only a bound is given, the exact number is not on record here.

Chain of human Y4/PP1 receptor (P50391 whole entry): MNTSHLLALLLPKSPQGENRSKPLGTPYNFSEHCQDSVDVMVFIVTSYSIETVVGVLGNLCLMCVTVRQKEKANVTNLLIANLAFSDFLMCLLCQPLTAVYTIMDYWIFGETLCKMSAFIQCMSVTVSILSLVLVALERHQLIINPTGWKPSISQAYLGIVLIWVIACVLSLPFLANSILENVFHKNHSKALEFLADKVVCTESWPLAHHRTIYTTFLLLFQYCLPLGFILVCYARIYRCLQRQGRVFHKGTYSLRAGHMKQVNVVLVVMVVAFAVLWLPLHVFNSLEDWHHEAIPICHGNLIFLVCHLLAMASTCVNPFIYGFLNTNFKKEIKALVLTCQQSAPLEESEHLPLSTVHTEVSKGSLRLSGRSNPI

Consider `Cl.O=C(CN1CCC(n2c(=O)[nH]c3ccccc32)CC1)Nc1ccc(-c2ccc(F)cc2)cc1` [Compound 327, N-(4′-Fluoro-biphenyl-4-yl)-2-[4-(2-oxo-2,3-dihydro-benzoimidazol-1-yl)-piperidin-1-yl]-acetamide; hydrochloride], for which the melting point (in general, the temperature of the solid-liquid transition) is 289 °C. For the same compound, in data set [1] (setting [7]), the IC50 (in general, the concentration at which inhibition is half-maximal) was 110 nM. The IC50 in data set [2] (setting [8]) amounted to 60 nM. For the same compound, the “rNPY5 % FSAC (10 μM)” value in data set [3] was found to be 101%.

On to `Cl.O=C(CN1CCC(n2c(=O)[nH]c3ccccc32)CC1)Nc1ccc(C(=O)c2ccccc2)cc1` [Compound 263, N-(4-Benzoyl-phenyl)-2-[4-(2-oxo-2,3-dihydro-benzoimidazol-1-yl)-piperidin-1-yl]-acetamide; hydrochloride], for which the melting point was 215 to 216 °C. In addition, the IC50 in data set [1] (setting [7]) amounted to 4 nM. The IC50 in data set [2] (setting [8]) was found to be 3 nM. The IC50 in data set [4] was > 5000 nM. Besides, the IC50 in data set [5] was > 5000 nM. For the same compound, in data set [3], the activity at 10 µM turned out to be 97%.

Compound `Cl.O=C(CN1CCC(n2c(=O)[nH]c3ccccc32)CC1)Nc1ccc2c(c1)-c1ccccc1C2=O` [Compound 311, 2-[4-(2-Oxo-2,3-dihydro-benzoimidazol-1-yl)-piperidin-1-yl]-N-(9-oxo-9H-fluoren-3-yl)-acetamide; hydrochloride] yielded a melting point of 258 °C. Also, the IC50 in data set [1] (setting [7]) worked out at 0.47 nM. In addition, in data set [2] (setting [8]), the IC50 amounted to 0.34 nM. Also, the activity at 10 µM in data set [3] stood at 95%.

As for `O=C(CN1CCC(n2c(=O)[nH]c3ccccc32)CC1)Nc1ccc(C(F)(F)F)cc1` [Compound 356, 2-[4-(2-Oxo-2,3-dihydro-benzoimidazol-1-yl)-piperidin-1-yl]-N-(4-trifluoromethyl-phenyl)-acetamide, reference compound], the IC50 in data set [1] (setting [7]) is 259 nM; in data set [2] (setting [8]), 271 nM; in data set [4], > 5000 nM; in data set [5], > 5000 nM; in data set [6], > 5000 nM. For the same compound, the activity at 10 µM in data set [3] was determined as 105%.

For the compound `O=C(CN1CCC(n2c(=O)[nH]c3ccccc32)CC1)Nc1ccc(O)cc1` [Compound 345, N-(4-Hydroxy-phenyl)-2-[4-(2-oxo-2,3-dihydro-benzoimidazol-1-yl)-piperidin-1-yl]-acetamide, reference compound], the IC50 in data set [1] (setting [7]) is 2900 nM; in data set [2] (setting [8]) it was 3300 nM; in data set [4], > 5000 nM; in data set [5], > 5000 nM; in data set [6], > 5000 nM. The activity at 10 µM in data set [3] stood at 93%.

With `O=C(CN1CCC(n2c(=O)[nH]c3ccccc32)CC1)Nc1ccc(N=Nc2ccccc2)cc1` [Compound 349, 2-[4-(2-Oxo-2,3-dihydro-benzoimidazol-1-yl)-piperidin-1-yl]-N-(4-phenylazo-phenyl)-acetamide, reference compound], the 50% inhibitory concentration (IC50) in data set [1] (setting [7]) is 138 nM; in data set [2] (setting [8]) it was 165 nM; in data set [4] it was > 5000 nM; in data set [5] it was > 5000 nM; in data set [6], > 5000 nM. Also, in data set [3], the activity at 10 µM turned out to be 100%.

For `O=C(CN1CCC(O)(Cc2ccccc2)CC1)Nc1ccc(C2CCCCC2)cc1` [Compound 314, 2-(4-Benzyl-4-hydroxy-piperidin-1-yl)-N-(4-cyclohexyl-phenyl)-acetamide; hydrochloride], the IC50 in data set [1] (setting [7]) was 130 nM; in data set [2] (setting [8]) it was 100 nM; in data set [4] it was > 5000 nM; in data set [5], > 5000 nM; in data set [6], > 5000 nM. For the same compound, the activity at 10 µM in data set [3] came out at 110%.

For the compound `Cl.O=C(CN1CCC(n2c(=O)[nH]c3ccccc32)CC1)NCCc1ccccc1` [Compound 280, 2-[4-(2-Oxo-2,3-dihydro-benzoimidazol-1-yl)-piperidin-1-yl]-N-phenethyl-acetamide; hydrochloride], the melting point is 181 to 182 °C. Moreover, the IC50 in data set [4] is > 5000 nM. For the same compound, in data set [5], the half-inhibitory concentration (IC50) was > 5000 nM. Further, the IC50 in data set [6] is > 5000 nM. For the same compound, the activity at 10 µM in data set [3] amounted to 90%.

In the case of `O=C(CN1CCC(n2c(=O)[nH]c3ccccc32)CC1)Nc1ccc(Oc2ccccc2)cc1` [Compound 352, 2-[4-(2-Oxo-2,3-dihydro-benzoimidazol-1-yl)-piperidin-1-yl]-N-(4-phenoxy-phenyl)-acetamide, reference compound], the IC50 in data set [1] (setting [7]) was 53 nM; in data set [2] (setting [8]) it was 62.8 nM; in data set [4] it was > 5000 nM; in data set [5] it was > 5000 nM; in data set [6], > 5000 nM. In data set [3], the activity at 10 µM was found to be 90%.

For the compound `CC(=O)c1ccc(NC(=O)CN2CCC(n3c(=O)[nH]c4ccccc43)CC2)cc1` [Compound 354, N-(4-Acetyl-phenyl)-2-[4-(2-oxo-2,3-dihydro-benzoimidazol-1-yl)-piperidin-1-yl]-acetamide, reference compound], the IC50 in data set [1] (setting [7]) is 143 nM; in data set [2] (setting [8]), 136 nM; in data set [4] it was > 5000 nM; in data set [5], > 5000 nM; in data set [6], > 5000 nM. Moreover, in data set [3], the activity at 10 µM turned out to be 98%.

Turning to `Cc1ccc(C2(O)CCN(CC(=O)Nc3ccc(C4CCCCC4)cc3)CC2)cc1` [Compound 298, N-(4-Cyclohexyl-phenyl)-2-(4-hydroxy-4-p-tolyl-piperidin-1-yl)-acetamide; hydrochloride], the half-inhibitory concentration (IC50) in data set [1] (hNPY5 IC50, [125I]PYY) is 30 nM; in data set [2] (rNPY5 IC50, [125I]PYY) it was 44 nM; in data set [4], > 5000 nM; in data set [5] it was > 5000 nM; in data set [6] it was > 5000 nM. In data set [3], the activity at 10 µM was found to be 103%.

As for `Cc1ccc(NC(=O)CN2CCC(n3c(=O)[nH]c4ccccc43)CC2)cc1` [Compound 359, 2-[4-(2-Oxo-2,3-dihydro-benzoimidazol-1-yl)-piperidin-1-yl]-N-p-tolyl-acetamide, reference compound], the IC50 was 1300 nM in data set [1] (setting [7]); 1200 nM in data set [2] (setting [8]); > 5000 nM in data set [4]; > 5000 nM in data set [5]; > 5000 nM in data set [6]. Also, the activity at 10 µM in data set [3] worked out at 104%.
